Results taken from the supplement of paper PMC10627819.

Experiments:
Assay in all cases: fitness (endpoint OD595 vs no drug) (fraction); higher = more growth
S. aureus DSM 20231 = test system: S. aureus DSM 20231
In short: (§1)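 Bacterial fitness was scored as optical density at the stationary-phase transition relative to the robust mean of no-drug control wells. Scores are capped at 1. The growth data were OD595 readings every 30 min for 14 h at 37 °C, background-subtracted against the first reading, from 384-well plates inoculated at OD595 0.01 in TSB, LB Lennox or CY.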

B. subtilis 168 = test system: B. subtilis 168
In short: as §1

S. pneumoniae D39V = test system: S. pneumoniae D39V
In short: as §1
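Note: OD595 on entry to stationary phase over no-drug wells; at most 1.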

CN(C)[C@@H]1C(O)=C(C(N)=O)C(=O)[C@@]2(O)C(O)=C3C(=O)c4c(O)ccc(Cl)c4[C@@](C)(O)[C@H]3C[C@@H]12 [Chlortetracycline] + Cc1cc(NS(=O)(=O)c2ccc(N)cc2)no1 [Sulfamethoxazol]
fitness, one replicate
Details | partner 0.5 µg/mL | partner 1 µg/mL | partner 2 µg/mL | partner 4 µg/mL
B. subtilis 168, first compound 0.0475 µg/mL | 0.905 | – | – | –
B. subtilis 168, first compound 0.095 µg/mL | 0.837 | – | – | –
B. subtilis 168, first compound 0.19 µg/mL | 0.449 | – | – | –
S. aureus DSM 20231, first compound 0.006 µg/mL | – | 0.724 | 0.733 | 0.761
S. pneumoniae D39V, first compound 0.012 µg/mL | – | 0.929 | 0.951 | 0.865
S. pneumoniae D39V, first compound 0.024 µg/mL | – | 0.851 | 0.88 | 0.806
S. pneumoniae D39V, first compound 0.048 µg/mL | – | 0.793 | 0.797 | 0.743

fitness
Details | partner 1 µg/mL | partner 2 µg/mL | partner 4 µg/mL
B. subtilis 168, first compound 0.0475 µg/mL | 0.9 | 0.852 | 0.907
B. subtilis 168, first compound 0.095 µg/mL | 0.78 | 0.725 | 0.779
B. subtilis 168, first compound 0.19 µg/mL | 0.548 | 0.527 | 0.5
S. aureus DSM 20231, first compound 0.012 µg/mL | 0.509 | 0.533 | 0.573
S. aureus DSM 20231, first compound 0.024 µg/mL | 0.256 | 0.234 | 0.264
S. aureus DSM 20231, first compound 0.048 µg/mL | 0.0878 | 0.0579 | 0.059
S. pneumoniae D39V, first compound 0.375 µg/mL | 0.0312 | 0.0347 | 0.0394
S. pneumoniae D39V, first compound 0.75 µg/mL | 0.0329 | 0.0284 | 0.0259
S. pneumoniae D39V, first compound 1.5 µg/mL | 0.0307 | 0.0374 | 0.0403

CN(C)[C@@H]1C(O)=C(C(N)=O)C(=O)[C@@]2(O)C(O)=C3C(=O)c4c(O)ccc(Cl)c4[C@@](C)(O)[C@H]3C[C@@H]12 [Chlortetracycline] + Cc1ncc([N+](=O)[O-])n1CCO [Metronidazole]
S. aureus DSM 20231, first compound 0.006 µg/mL, one replicate
Details | fitness
partner 0.625 µg/mL | 0.807
partner 1.25 µg/mL | 0.8
partner 2.5 µg/mL | 0.833

Details | fitness
B. subtilis 168, first compound 0.0475 µg/mL, partner 0.625 µg/mL | 0.978
B. subtilis 168, first compound 0.0475 µg/mL, partner 1.25 µg/mL | 0.925
B. subtilis 168, first compound 0.0475 µg/mL, partner 2.5 µg/mL | 0.959
B. subtilis 168, first compound 0.095 µg/mL, partner 0.625 µg/mL | 0.888
B. subtilis 168, first compound 0.095 µg/mL, partner 1.25 µg/mL | 0.789
B. subtilis 168, first compound 0.095 µg/mL, partner 2.5 µg/mL | 0.822
B. subtilis 168, first compound 0.19 µg/mL, partner 0.625 µg/mL | 0.619
B. subtilis 168, first compound 0.19 µg/mL, partner 1.25 µg/mL | 0.586
B. subtilis 168, first compound 0.19 µg/mL, partner 2.5 µg/mL | 0.536
S. aureus DSM 20231, first compound 0.048 µg/mL, partner 0.625 µg/mL | 0.196
S. aureus DSM 20231, first compound 0.048 µg/mL, partner 1.25 µg/mL | 0.144
S. aureus DSM 20231, first compound 0.048 µg/mL, partner 2.5 µg/mL | 0.124
S. pneumoniae D39V, first compound 0.012 µg/mL, partner 1.073 µg/mL | 0.958
S. pneumoniae D39V, first compound 0.012 µg/mL, partner 4.29 µg/mL | 0.904
S. pneumoniae D39V, first compound 0.024 µg/mL, partner 1.073 µg/mL | 0.972
S. pneumoniae D39V, first compound 0.024 µg/mL, partner 4.29 µg/mL | 0.916
S. pneumoniae D39V, first compound 0.048 µg/mL, partner 1.073 µg/mL | 0.855
S. pneumoniae D39V, first compound 0.048 µg/mL, partner 2.145 µg/mL | 0.873
S. pneumoniae D39V, first compound 0.048 µg/mL, partner 4.29 µg/mL | 0.872
S. pneumoniae D39V, first compound 0.375 µg/mL, partner 1.25 µg/mL | 0.0344
S. pneumoniae D39V, first compound 0.375 µg/mL, partner 2.5 µg/mL | 0.0383
S. pneumoniae D39V, first compound 0.375 µg/mL, partner 5 µg/mL | 0.0668
S. pneumoniae D39V, first compound 0.75 µg/mL, partner 1.25 µg/mL | 0.0404
S. pneumoniae D39V, first compound 0.75 µg/mL, partner 2.5 µg/mL | 0.045
S. pneumoniae D39V, first compound 0.75 µg/mL, partner 5 µg/mL | 0.0953
S. pneumoniae D39V, first compound 1.5 µg/mL, partner 1.25 µg/mL | 0.0574
S. pneumoniae D39V, first compound 1.5 µg/mL, partner 2.5 µg/mL | 0.0668
S. pneumoniae D39V, first compound 1.5 µg/mL, partner 5 µg/mL | 0.0748
